# Laboratory results: patent US20250034216A1, “STEREOSELECTIVE COVALENT LIGANDS FOR ONCOGENIC AND IMMUNOLOGICAL PROTEINS” (The Scripps Research Institute, priority 2021, published 2025)
# Tests used:
# CUL5_C112 = biological target: T1, CUL5_C112 (Homo sapiens, UniProt Q93034); assay: IA-DTB cysteine engagement; assay type: binding; conditions: 22Rv1 cells, 20 μM probe, 1 h, relative to DMSO
# T1 construct: endogenous in cells; host or cells: 22Rv1
# T1 sequence (Q93034 1-780): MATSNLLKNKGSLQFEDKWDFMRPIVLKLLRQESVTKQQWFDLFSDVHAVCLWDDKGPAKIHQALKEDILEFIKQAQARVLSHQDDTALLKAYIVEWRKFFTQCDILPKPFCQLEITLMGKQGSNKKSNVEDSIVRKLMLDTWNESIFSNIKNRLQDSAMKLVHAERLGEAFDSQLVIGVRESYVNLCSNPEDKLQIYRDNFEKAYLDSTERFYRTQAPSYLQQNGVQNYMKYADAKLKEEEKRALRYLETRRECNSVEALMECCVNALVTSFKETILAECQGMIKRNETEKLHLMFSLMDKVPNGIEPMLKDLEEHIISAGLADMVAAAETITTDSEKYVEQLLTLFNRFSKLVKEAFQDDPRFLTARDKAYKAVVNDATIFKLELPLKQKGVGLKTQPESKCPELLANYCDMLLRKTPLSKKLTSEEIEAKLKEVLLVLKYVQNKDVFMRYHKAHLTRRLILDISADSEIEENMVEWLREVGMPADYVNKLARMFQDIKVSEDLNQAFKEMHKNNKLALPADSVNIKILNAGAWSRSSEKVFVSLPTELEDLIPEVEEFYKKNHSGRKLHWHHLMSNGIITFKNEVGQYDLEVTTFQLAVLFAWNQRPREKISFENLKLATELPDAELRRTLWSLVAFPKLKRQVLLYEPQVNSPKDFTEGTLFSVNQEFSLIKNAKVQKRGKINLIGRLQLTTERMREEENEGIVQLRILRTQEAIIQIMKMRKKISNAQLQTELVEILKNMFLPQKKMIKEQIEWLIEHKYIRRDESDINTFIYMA
# Method in brief: (§1)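 Cells were treated in situ with electrophilic probes, then lysed, and the lysates (2 mg/mL protein) were labeled with IA-DTB for 1 h at ambient temperature. After reduction, alkylation and trypsin digestion, labeled peptides were streptavidin-enriched, TMT-labeled and fractionated. Engagement ratios are probe vs DMSO reporter intensities, averaged across replicates.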
# LAPTM4A_C20 = biological target: T2, LAPTM4A_C20 (Homo sapiens, UniProt Q15012); assay: IA-DTB cysteine engagement; assay type: binding; conditions: 22Rv1 cells, 20 μM probe, 1 h, relative to DMSO
# T2 construct: endogenous in cells; host or cells: 22Rv1
# Method in brief: as §1
Compound,% engagement CUL5_C112 (CUL5_C112) [%],% engagement LAPTM4A_C20 (LAPTM4A_C20) [%]
"C=CC(=O)N1C[C@@H](c2ccc(Br)cc2)[C@H]1C(=O)Nc1cccc2cccnc12 [MY-1A, (2S,3R)-1-acryloyl-3-(4-bromophenyl)-N-(quinolin-8-yl)azetidine-2-carboxamide]",95.5,69
"C=CC(=O)N1C[C@H](c2ccc(Br)cc2)[C@@H]1C(=O)Nc1cccc2cccnc12 [MY-1B, (2R,3S)-1-acryloyl-3-(4-bromophenyl)-N-(quinolin-8-yl)azetidine-2-carboxamide]",11,55
"C=CC(=O)N1C[C@H](c2ccc(Br)cc2)[C@H]1C(=O)Nc1cccc2cccnc12 [MY-3A, (2S,3S)-1-acryloyl-3-(4-bromophenyl)-N-(quinolin-8-yl)azetidine-2-carboxamide]",−14.75,49.5
"C=CC(=O)N1C[C@H](c2ccc(Br)cc2)[C@H]1C(=O)Nc1cccc2cccnc12 [MY-3B, (2S,3S)-1-acryloyl-3-(4-bromophenyl)-N-(quinolin-8-yl)azetidine-2-carboxamide]",−20,70.5
